In article PMC9964938, “Synthesis and Properties of Sucrose- and Lactose-Based Aromatic Ester Surfactants as Potential Drugs Permeability Enhancers” (Pharmaceuticals, 2023):

Tests used:
Calu-3 monolayers [1] = system: Calu-3 monolayers; design: method as in PMID 29970849; conditions: Calu-3 cells, non-cytotoxic concentration, reversible; cited from earlier work
Calu-3 monolayers [2] = assay: TEER measurement; type: cell-based, human; conditions: Calu-3 cells; for effect on TEER: surfactant 4 mM in HBSS, 3 h; for decrease in TEER with respect to basal value: surfactant 4 mM, reversible
Experimental: TEER studies were performed in Calu-3 cells (Figure 4) to preliminarily evaluate the potential use of the synthesized sugar esters as absorption enhancers. […] .
Calu-3 cells were seeded on filter inserts Transwell® at ~200,000 cells per insert. The cells were cultured in Dulbecco Modified Eagle Medium (DMEM)-F12 to confluence for around three weeks using an air–liquid culture condition. The culture medium was changed every 48 h. […] Baseline TEER was recorded following 30 min of equilibration in HBSS. […] The cells were incubated with the samples or HBSS as a control for 3 h. During this period, TEER was measured every 30 min. The samples were then removed and the cells were washed extensively using HBSS. Culture medium was added to the basolateral chamber and a further measurement of TEER was taken at 24 h following sample application to establish TEER reversibility. The change in TEER was reported as a percentage relative to the baseline value.

[3] = CMC by dynamic light scattering (counts); type: physicochemical; conditions: counts vs concentration, 25 °C
Source text: The DLS from the counts analysis confirmed the self-assembling properties of the amphiphiles analyzed as evidenced by the fluorescence measurements. Figure 2b reports the variation in the scattering intensities to the detector (kCps) as a function of the surfactant concentration.
As unimers, instead, the hydrodynamic sizes of the surfactant molecules were too small and the scattering properties of the solutions were not markedly different from those of the medium.
The scattering intensity to the detector (counts, kCps) was measured for different concentrations (0.03–4 mM) of surfactant solution using a Malvern Zetasizer Nano S (Malvern, Worcestershire, UK). Measurements were performed at 25 °C at a fixed laser position (4.65) and attenuation (11). CMC values were calculated from counts versus concentration plots by fitting the experimental data using the segmental linear regression model (GraphPad Prism 6 software).

[4] = CMC by pyrene fluorescence spectroscopy; type: physicochemical; conditions: pyrene I/III peak ratio, aqueous solution, 25 °C
Source text: Pyrene is a common fluorescence probe, widely employed to investigate the aggregation state of surfactant in aqueous solution, as its emission properties are strongly influenced by the polarity of the microenvironment. Specifically, a decrease in the ratio between I and III peaks is observed when the hydrophobicity increases in the surroundings of pyrene as a result of the aggregation of surfactants into micelles or supramolecular aggregates. […] As is common for surfactants, the concentration at which aggregation in aqueous solution occurs is strongly dependent on the hydrophilicity/hydrophobicity balance between the surfactant head and tail. Specifically, changes in the hydrophobicity of the surfactant tail exert a marked effect on the self-assembling properties for a surfactant bearing the same polar head. On the contrary, the variation in the sugar head has a minor effect.
The pyrene emissions in the surfactant solutions at different concentrations (0.03–4 mM) were measured using a LS 55 fluorescence spectrometer (PerkinElmer, Waltar, MA, USA) equipped with a thermostatic bath HAAKE C25P (Artisan Scientific Corporation, Champaign, IL, USA). For the analyses, three microliters of the pyrene solution in CH3OH (2 μM) were added to each of the aqueous surfactant solutions. The excitation wavelength was 334 nm. Ten acquisitions were recorded for each solution in the range of 200–700 nm at a temperature of 25 °C. The peak intensity I (λ = 372 nm) to III (λ = 384 nm) ratio was plotted against the surfactant concentrations. CMC values were calculated from the center of the sigmoid by fitting the experimental data through the Boltzmann nonlinear regression (GraphPad Prism 6 software) according to the following equation: bottom+(top−bottom)/1+10^[(logCMC−x)hill slope] where the top and bottom are the plateau of the curve and the hill slope is the steepness.

Calu-3 monolayers [5] = assay: FITC-dextran in vitro cell permeability study; conditions: surfactant 4 mM
Experimental: Cell monolayers with TEER over 800 Ω were used in these studies to ensure the integrity of the monolayers. FITC-dextran MW 4000 was used as a model macromolecular drug. Prior to sample application, the culture medium was removed, and the cell layers were washed with HBSS. The cells were equilibrated in HBSS for 30 min. Sucrose ester solutions at 4 mM and dextran at a final concentration of 0.5 mg/mL in HBSS were applied to the apical side of the cells. HBSS was added to the basolateral side. A basolateral solution of 100 µL was collected at 30, 60, 90, 120, 150, and 180 min after sample application and replaced with an equivalent volume of fresh HBSS. The amount of dextran permeating the cell monolayers in 3 h was quantified by spectrofluorometric analysis.

Calu-3 cells = assay: MTT cell viability assay; type: cell-based, human; conditions: 3 h incubation
Experimental: All the compounds were tested to evaluate their cytotoxicity profile on Calu-3 cells. The MTT colorimetric assay, based on the reduction of a yellow tetrazolium salt MTT to purple formazan crystals by metabolically active cells, was used to measure the cellular metabolic activity as an indicator of cell viability, proliferation, and cytotoxicity. Indeed, the viable cells contain NAD(P)H-dependent oxidoreductase enzymes, which reduce MTT to formazan. […] Moreover, the LDH release assay, used to assess the level of plasma membrane damage in a cell population, was performed to evaluate the cytotoxicity of the sugar esters. LDH is in fact a stable enzyme found in all cell types and is rapidly released into the cell culture medium following damage to the plasma membrane that occurs after cell damage or death. […]
Calu-3 cells were seeded on 96-well plates at ~50,000 cells per well and were incubated to attain at least 80% confluence before the experiment. Prior to the assay, the culture medium was removed and replaced with different concentrations of surfactants (0.03 to 4.5 mM for the fluorescence spectroscopy and DLS analysis) in Hank’s balanced salt solution (HBSS). […] The supernatant was collected for the LDH assay and the cell viability was measured with the MTT assay according to the manufacturers’ instructions, with at least three repeats for each sample.

**Q.** For `CCCCCCCCCCCC(=O)OCC1OC(OC2C(CO)OC(O)C(O)C2O)C(O)C(O)C1O` (stereo not shown) [6′-lactose laurate], which “TEER, % of the baseline value after decrease” value (Calu-3 monolayers [1]) is on record?
**A.** Its value is ~ 25%.

**Q.** For `O=C(Cc1ccccc1)OC[C@H]1O[C@H](O[C@]2(CO)O[C@H](CO)[C@@H](O)[C@@H]2O)[C@H](O)[C@@H](O)[C@@H]1O` [URB1480, β-D-fructofuranosyl 6-O-(2-Phenylethanoyl)-α-D-glucopyranoside], which “effect on TEER” value (Calu-3 monolayers [2]) is on record?
**A.** Its value is “only poorly affected TEER”.

**Q.** And the “Dynamic Light Scattering CMC” value [3]?
**A.** Its value is 0.791 ± 0.045 mM.

**Q.** What about the “Fluorescence Spectroscopy CMC” value [4] of the same compound?
**A.** The value was 0.861 ± 0.076 mM.

**Q.** With `O=C(OC[C@H]1O[C@H](O[C@]2(CO)O[C@H](CO)[C@@H](O)[C@@H]2O)[C@H](O)[C@@H](O)[C@@H]1O)c1ccc(-c2ccccc2)cc1` [URB1481, β-D-fructofuranosyl 6-O-[2-(4-Phenyl)benzoyl]-α-D-glucopyranoside] as the compound, how does the “effect on TEER” value (Calu-3 monolayers [2]) read?
**A.** Its value is “most effective surfactants for decreasing TEER”.

**Q.** And the “decrease in TEER with respect to basal value” (Calu-3 monolayers [2])?
**A.** The value was ~ 30%.

**Q.** And the “Dynamic Light Scattering CMC” value [3]?
**A.** Its value is 0.329 ± 0.023 mM.

**Q.** And the “Fluorescence Spectroscopy CMC” value [4]?
**A.** Its value is 0.305 ± 0.091 mM.

**Q.** And the “permeation enhancing effect on FITC-dextran Papp” value (Calu-3 monolayers [5]; Calu-3 cell layers, FITC-dextran MW 4000 0.5 mg/mL)?
**A.** Its value is “more prominent permeation enhancing effect”.

**Q.** What about the “increase in FITC-dextran permeability vs control” value (Calu-3 monolayers [5]; Calu-3 cells, non-statistically significant vs control) of the same compound?
**A.** The value was “three-fold increase”.

**Q.** What about the “cell viability (MTT)” value (Calu-3 cells; highest tested concentration of 4.5 mM) of the same compound?
**A.** The value was “above 70%”.

**Q.** With `O=C(Cc1ccc(-c2ccccc2)cc1)OC[C@H]1O[C@H](O[C@]2(CO)O[C@H](CO)[C@@H](O)[C@@H]2O)[C@H](O)[C@@H](O)[C@@H]1O` [URB1482, β-D-fructofuranosyl 6-O-[2-(4-Phenyl)phenylethanoyl]-α-D-glucopyranoside] as the compound, how does the “effect on TEER” value (Calu-3 monolayers [2]) read?
**A.** Its value is “moderate action”.

**Q.** What about the “Dynamic Light Scattering CMC” value [3] of the same compound?
**A.** Its value is 0.181 ± 0.026 mM.

**Q.** And the “Fluorescence Spectroscopy CMC” value [4]?
**A.** The value was 0.095 ± 0.015 mM.

**Q.** For Lactose p-biphenyl acetate [URB1421], which “effect on TEER” value (Calu-3 monolayers [2]) is on record?
**A.** Its value is “moderate action”.

**Q.** What about the “Dynamic Light Scattering CMC” value [3] of the same compound?
**A.** The value was 0.259 ± 0.063 mM.

**Q.** And the “Fluorescence Spectroscopy CMC” value [4]?
**A.** The value was 0.110 ± 0.017 mM.

**Q.** What does the source list for Lactose p-phenyl benzoate [URB1420]?
**A.** effect on TEER (Calu-3 monolayers [2]): most effective surfactants for decreasing TEER; decrease in TEER with respect to basal value (Calu-3 monolayers [2]): ~ 30%; Dynamic Light Scattering CMC [3]: 0.344 ± 0.034 mM; Fluorescence Spectroscopy CMC [4]: 0.270 ± 0.015 mM

**Q.** Which “effect on TEER” value (Calu-3 monolayers [2]) does the source give for Lactose phenyl acetate [URB1419] here?
**A.** The value was “moderate action”.

**Q.** What about the “Dynamic Light Scattering CMC” value [3] of the same compound?
**A.** The value was 0.729 ± 0.075 mM.

**Q.** And the “Fluorescence Spectroscopy CMC” value [4]?
**A.** The value was 0.753 ± 0.084 mM.

**Q.** And the “cell viability (MTT), lowest level reached” value (Calu-3 cells; 0.03 to 4.5 mM)?
**A.** Its value is at least 70%.
